Data reported in patent US12077503B2, “Substituted cyclic amides and their use as herbicides” (FMC CORPORATION, priority 2015, dated 2024).
Like-named read-outs stand apart in the source and are kept apart here.

Columns and labels:
corn (Zea mays) = test: Test A postemergence; assay type: in vivo; settings: Zea mays, post-emergence, 240 h; for Corn plant response rating (crop injury, 0 = no effect, 100 = complete kill) at 125 g/ha / plant injury at 125 g/ha: 125 g ai/ha; for Corn plant response rating (crop injury, 0 = no effect, 100 = complete kill) at 125 g/ha: Postemergence, visual injury after approximately 10 d, 0 to 100 scale where 0 is no effect and 100 is complete control; for plant injury at 125 g/ha / plant injury at 500 g/ha: postemergence, read-out: Corn plant response rating; for plant injury at 125 g/ha: visual injury on 0 to 100 scale (0 no effect, 100 complete control), approx. 10 d; for plant injury at 500 g/ha: 500 g ai/ha, 0 to 100 scale, 0 is no effect, 100 is complete control
Method in brief: (§1)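 Visual injury, scored on a 0–100 scale relative to untreated controls, was recorded about 10 d after application. Treatments were a preemergence soil spray over planted seeds or a postemergence spray on plants at the one- to two-leaf stage, 2 to 10 cm tall, all in loam soil–sand blend in the greenhouse.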

[1] = system: giant foxtail (Setaria faberii); test: Test A postemergence; assay type: in vivo; settings: Setaria faberi, post-emergence, 240 h; for pest or weed control at 125 g/ha: 125 g ai/ha; for pest or weed control at 500 g/ha: 500 g ai/ha, 0 to 100 scale, 0 is no effect, 100 is complete control
Method in brief: as §1

[2] = system: wheat (Triticum aestivum); test: Test A postemergence; assay type: in vivo; settings: Triticum aestivum, post-emergence, 240 h; for plant injury at 125 g/ha: 125 g ai/ha; for plant injury at 500 g/ha: 500 g ai/ha, 0 to 100 scale, 0 is no effect, 100 is complete control
Method in brief: as §1

[3] = system: ryegrass, Italian (Italian ryegrass, Lolium multiflorum); test: Test A postemergence; assay type: in vivo; settings: Lolium multiflorum, post-emergence, 240 h; for pest or weed control at 125 g/ha: 125 g ai/ha; for pest or weed control at 500 g/ha: 500 g ai/ha, 0 to 100 scale, 0 is no effect, 100 is complete control
Method in brief: as §1

[4] = system: Galium (catchweed bedstraw, Galium aparine); test: Test A postemergence; assay type: in vivo; settings: Galium, post-emergence, 240 h; for pest or weed control at 125 g/ha: 125 g ai/ha; for pest or weed control at 500 g/ha: 500 g ai/ha, 0 to 100 scale, 0 is no effect, 100 is complete control
Method in brief: as §1

[5] = system: ragweed (common ragweed, Ambrosia elatior); test: Test A postemergence; assay type: in vivo; settings: Ambrosia artemisiifolia, post-emergence, 240 h; for pest or weed control at 125 g/ha: 125 g ai/ha; for pest or weed control at 500 g/ha: 500 g ai/ha, 0 to 100 scale, 0 is no effect, 100 is complete control
Method in brief: as §1

[6] = Postemergence, visual injury after approximately 10 d, 0 to 100 scale where 0 is no effect and 100 is complete control, read-out: Plant response rating, Foxtail, Giant
[7] = Postemergence, visual injury after approximately 10 d, 0 to 100 scale where 0 is no effect and 100 is complete control, read-out: Plant response rating, Wheat
[8] = Postemergence, visual injury after approximately 10 d, 0 to 100 scale where 0 is no effect and 100 is complete control, read-out: Plant response rating, Ryegrass, Italian
[9] = Postemergence, visual injury after approximately 10 d, 0 to 100 scale where 0 is no effect and 100 is complete control, read-out: Plant response rating, Galium
[10] = Postemergence, visual injury after approximately 10 d, 0 to 100 scale where 0 is no effect and 100 is complete control, read-out: Plant response rating, Ragweed
[11] = postemergence, visual injury on 0 to 100 scale (0 no effect, 100 complete control), approx. 10 d, read-out: Foxtail, Giant plant response rating
[12] = postemergence, read-out: Foxtail, Giant plant response rating
[13] = postemergence, visual injury on 0 to 100 scale (0 no effect, 100 complete control), approx. 10 d, read-out: Wheat plant response rating
[14] = postemergence, read-out: Wheat plant response rating
[15] = postemergence, visual injury on 0 to 100 scale (0 no effect, 100 complete control), approx. 10 d, read-out: Ryegrass, Italian plant response rating
[16] = postemergence, read-out: Ryegrass, Italian plant response rating
[17] = postemergence, visual injury on 0 to 100 scale (0 no effect, 100 complete control), approx. 10 d, read-out: Galium plant response rating
[18] = postemergence, read-out: Galium plant response rating
[19] = postemergence, visual injury on 0 to 100 scale (0 no effect, 100 complete control), approx. 10 d, read-out: Ragweed plant response rating
[20] = postemergence, read-out: Ragweed plant response rating

Question: Which melting point does the source give for Cc1cccc(NC(=O)[C@H]2C(=O)N(C)C[C@@H]2c2ccc(C(F)(F)F)cc2)c1C [Compound 941] here?
Answer: 166 to 169 °C

Question: What about the Corn plant response rating (crop injury, 0 = no effect, 100 = complete kill) at 125 g/ha (corn (Zea mays)) of the same compound?
Answer: 0%

Question: And the pest or weed control at 125 g/ha [1, 6]?
Answer: 60%

Question: What about the plant injury at 125 g/ha [2, 7] of the same compound?
Answer: 0%

Question: And the pest or weed control at 125 g/ha [3, 8]?
Answer: 0%

Question: What about the pest or weed control at 125 g/ha [4, 9] of the same compound?
Answer: 20%

Question: What about the pest or weed control at 125 g/ha [5, 10] of the same compound?
Answer: 0%

Question: Which results are given for CN1C[C@H](c2ccc(C(F)(F)F)cc2)[C@@H](C(=O)Nc2ccc(F)cc2C(F)(F)F)C1=O [Compound 942]?
Answer: melting point: 113 to 116 °C; Corn plant response rating (crop injury, 0 = no effect, 100 = complete kill) at 125 g/ha (corn (Zea mays)): 0%; pest or weed control at 125 g/ha [1, 6]: 80%; plant injury at 125 g/ha [2, 7]: 20%; pest or weed control at 125 g/ha [3, 8]: 0%; pest or weed control at 125 g/ha [4, 9]: 50%; pest or weed control at 125 g/ha [5, 10]: 0%

Question: For CCc1cccc([C@H]2CCNC(=O)[C@@H]2C(=O)Nc2cccc(F)c2F)c1 [Compound 1058], which melting point is on record?
Answer: 128 to 132 °C

Question: What about the plant injury at 125 g/ha (corn (Zea mays)) of the same compound?
Answer: 0%

Question: What about the plant injury at 500 g/ha (corn (Zea mays)) of the same compound?
Answer: 30%

Question: What about the pest or weed control at 125 g/ha [1, 11] of the same compound?
Answer: 0%

Question: And the pest or weed control at 500 g/ha [1, 12]?
Answer: 0%

Question: And the plant injury at 125 g/ha [2, 13]?
Answer: 0%

Question: And the plant injury at 500 g/ha [2, 14]?
Answer: 0%

Question: What about the pest or weed control at 125 g/ha [3, 15] of the same compound?
Answer: 0%

Question: What about the pest or weed control at 500 g/ha [3, 16] of the same compound?
Answer: 0%

Question: And the pest or weed control at 125 g/ha [4, 17]?
Answer: 50%

Question: And the pest or weed control at 500 g/ha [4, 18]?
Answer: 60%

Question: What about the pest or weed control at 125 g/ha [5, 19] of the same compound?
Answer: 80%

Question: What about the pest or weed control at 500 g/ha [5, 20] of the same compound?
Answer: 90%

Question: For CN1CC(c2cccc(/C=C/Cl)c2)C(C(=O)Nc2ccccc2F)C1=O (stereo not drawn) [Compound 1129], which melting point is on record?
Answer: 97 to 101 °C

Question: What about the plant injury at 125 g/ha (corn (Zea mays)) of the same compound?
Answer: 0%

Question: And the plant injury at 500 g/ha (corn (Zea mays))?
Answer: 0%

Question: What about the pest or weed control at 125 g/ha [1, 11] of the same compound?
Answer: 70%

Question: And the pest or weed control at 500 g/ha [1, 12]?
Answer: 90%

Question: What about the plant injury at 125 g/ha [2, 13] of the same compound?
Answer: 0%

Question: And the plant injury at 500 g/ha [2, 14]?
Answer: 0%

Question: What about the pest or weed control at 125 g/ha [3, 15] of the same compound?
Answer: 0%

Question: What about the pest or weed control at 500 g/ha [3, 16] of the same compound?
Answer: 0%

Question: What about the pest or weed control at 125 g/ha [4, 17] of the same compound?
Answer: 0%

Question: And the pest or weed control at 500 g/ha [4, 18]?
Answer: 0%

Question: And the pest or weed control at 125 g/ha [5, 19]?
Answer: 0%

Question: What about the pest or weed control at 500 g/ha [5, 20] of the same compound?
Answer: 0%

Question: With CN1CC(c2cccc(O)c2)C(C(=O)Nc2cccc(F)c2F)C1=O (stereo not drawn) [Compound 1130] as the compound, how does the melting point read?
Answer: 216 to 220 °C

Question: What about the plant injury at 125 g/ha (corn (Zea mays)) of the same compound?
Answer: 0%

Question: What about the plant injury at 500 g/ha (corn (Zea mays)) of the same compound?
Answer: 0%

Question: And the pest or weed control at 125 g/ha [1, 11]?
Answer: 0%

Question: What about the pest or weed control at 500 g/ha [1, 12] of the same compound?
Answer: 30%

Question: What about the plant injury at 125 g/ha [2, 13] of the same compound?
Answer: 0%

Question: What about the plant injury at 500 g/ha [2, 14] of the same compound?
Answer: 0%

Question: What about the pest or weed control at 125 g/ha [3, 15] of the same compound?
Answer: 0%

Question: What about the pest or weed control at 500 g/ha [3, 16] of the same compound?
Answer: 0%

Question: And the pest or weed control at 125 g/ha [4, 17]?
Answer: 0%

Question: And the pest or weed control at 500 g/ha [4, 18]?
Answer: 0%

Question: And the pest or weed control at 125 g/ha [5, 19]?
Answer: 0%

Question: What about the pest or weed control at 500 g/ha [5, 20] of the same compound?
Answer: 0%

Question: With O=C1NC[C@H](c2ccc(F)c(OC(F)(F)C(F)F)c2)[C@H]1C(=O)Nc1ccccc1F [Compound 1133] as the compound, how does the melting point read?
Answer: 119 to 123 °C

Question: What about the plant injury at 125 g/ha (corn (Zea mays)) of the same compound?
Answer: 50%

Question: What about the plant injury at 500 g/ha (corn (Zea mays)) of the same compound?
Answer: 80%

Question: And the pest or weed control at 125 g/ha [1, 11]?
Answer: 90%

Question: What about the pest or weed control at 500 g/ha [1, 12] of the same compound?
Answer: 90%

Question: And the plant injury at 125 g/ha [2, 13]?
Answer: 60%

Question: And the plant injury at 500 g/ha [2, 14]?
Answer: 70%

Question: What about the pest or weed control at 125 g/ha [3, 15] of the same compound?
Answer: 20%

Question: What about the pest or weed control at 500 g/ha [3, 16] of the same compound?
Answer: 40%

Question: And the pest or weed control at 125 g/ha [4, 17]?
Answer: 70%

Question: And the pest or weed control at 500 g/ha [4, 18]?
Answer: 70%

Question: And the pest or weed control at 125 g/ha [5, 19]?
Answer: 60%

Question: And the pest or weed control at 500 g/ha [5, 20]?
Answer: 70%
